Laboratory results reported in patent US9717243B2, “Piperidinecarboxylic acid derivatives as fungicides” (priority 2013, dated 2017).
Like-named read-outs stand apart in the source and are kept apart here.

Assay: LogP by HPLC on reversed phase columns (EEC directive 79/831 Annex V.A8)
Assay type: physicochemical
Description: Calibration was done with straight-chain alkan2-ones (with 3 to 16 carbon atoms) with known LogP values (measurement of LogP values using retention times with linear interpolation between successive alkanones). Lambda-max-values were determined using UV-spectra from 200 nm to 400 nm and the peak values of the chromatographic signals.

[1] = pH 2.7, synthesis intermediates in preparation examples, read-out: LogP (pH 2.7)
[2] = Table 1, compounds of formula (I), LC-UV, acidic range, 0.1% formic acid in water and acetonitrile as eluent

| SMILES | Log P[a] | further results |
| --- | --- | --- |
| C#CCOC(=O)C1(C(N)=S)CCN(C(=O)Cn2nc(C(F)F)cc2C(F)F)CC1 [II-17] | 2.27 |  |
| C#CCOC(=O)C1(c2nc(C3=NOC(c4c(Cl)cccc4OS(C)(=O)=O)C3)cs2)CCN(C(=O)Cn2nc(C(F)F)cc2C(F)F)CC1 (stereo not shown) [Example I-78] | 3.58 |  |
| CSCCOC(=O)C1(C(N)=S)CCN(C(=O)Cn2nc(C(F)F)cc2C(F)F)CC1 [II-2] | 2.49 |  |
| C#CCOc1ccc(F)c(F)c1C1CC(c2csc(C3(C(=O)OC)CCN(C(=O)Nc4cc(C(F)(F)F)nn4C)CC3)n2)=NO1 (stereo not shown) [Example I-81] | 3.35 |  |
| C#CCOc1ccc(F)c(F)c1C1CC(c2csc(C3(C(=O)OC)CCN(C(=O)Cn4nc(C)cc4C(F)F)CC3)n2)=NO1 (stereo not shown) [Example I-76] | 3.09 |  |
| N#CC1(C(=O)OC2CCOC2)CCN(C(=O)Cn2nc(C(F)F)cc2C(F)F)CC1 (stereo not shown) [IV-1] | 2.26 |  |
| C#CCOc1ccccc1C1CC(c2csc(C3(C(=O)OC4CCOC4)CCN(C(=O)Cn4nc(C(F)F)cc4C(F)F)CC3)n2)=NO1 (stereo not shown) [Example I-58] | 3.55 |  |
| COC(=O)C1(C(N)=S)CCN(C(=O)Cn2nc(C)cc2C(F)F)CC1 [II-5] | 1.75 |  |
| C#CCOc1ccc(F)c(F)c1C1CC(c2csc(C3(C(=O)OCc4ccccc4)CCN(C(=O)Cn4nc(C(F)F)cc4C(F)F)CC3)n2)=NO1 (stereo not shown) [Example I-40] | 4.31 |  |
| CC(C)OC(=O)C1(c2nc(C3=NOC(c4ccccc4)C3)cs2)CCN(C(=O)Cn2nc(C(F)F)cc2C(F)F)CC1 (stereo not shown) [Example I-32] | 4.04 |  |
| CCOC(=O)C1(C(N)=S)CCN(C(=O)Cn2nc(C(F)F)cc2C(F)F)CC1 [II-10] | 2.26 |  |
| N#CC1(C(=O)O)CCN(C(=O)Cn2nc(C(F)F)cc2C(F)F)CC1 [IV-12] | 1.44 |  |
| O=C(Cn1nc(C(F)F)cc1C(F)F)N1CCC(C(=O)OC2CCOC2)(c2nc(C3=NOC(c4c(F)cccc4F)C3)cs2)CC1 (stereo not shown) [Example I-55] | 3.39 |  |
| C#CCOc1ccc(F)c(F)c1C1CC(c2csc(C3(C(=O)OC4CCOC4)CCN(C(=O)Cn4nc(C(F)F)cc4C(F)F)CC3)n2)=NO1 (stereo not shown) [Example I-59] | 3.55 |  |
| N#CC1(C(=O)O)CCN(C(=O)Nc2ccc(Cl)c(C(F)(F)F)c2)CC1 [IV-30] | 2.42 |  |
| CCOC(=O)C1(C#N)CCN(C(=O)Cn2nc(C(F)F)cc2C(F)F)CC1 [IV-11] | 2.55 |  |
| N#CC1(C(=O)OCc2ccccc2)CCN(C(=O)Cn2nc(C(F)F)cc2C(F)F)CC1 [IV-6] | 3.23 |  |
| CC(C)(C)OC(=O)C1(C#N)CCN(C(=O)Nc2cccc(C#N)c2)CC1 [IV-29] | 2.88 |  |
| COC(=O)C1(C#N)CCN(C(=O)CCl)CC1 [VI-1, methyl 1-(chloroacetyl)-4-cyanopiperidine-4-carboxylate] |  | chromatographic logP (Table 3, compounds of formula (VI), LC-UV, acidic range, 0.1% formic acid in water and acetonitrile as eluent, read-out: Log P[a]): 1.27 |
| O=C(Cn1nc(C(F)F)cc1C(F)F)N1CCC(C(=O)OC2CCOC2)(c2nc(C3=NOC(c4ccccc4)C3)cs2)CC1 (stereo not shown) [Example I-56] | 3.39 |  |

| SMILES | Log P[a] | further results |
| --- | --- | --- |
| CS(=O)(=O)Oc1ccccc1C1CC(C(=O)CCl)=NO1 (stereo not shown) [2-[3-(chloroacetyl)-4,5-dihydro-1,2-oxazol-5-yl]phenyl methanesulfonate] |  | chromatographic logP [1]: 2.54 |
| COC(=O)C1(C#N)CCN(C(=O)Cn2nc(C(F)F)cc2C(F)F)CC1 [IV-13, methyl 1-{[3,5-bis(difluoromethyl)-1H-pyrazol-1-yl]acetyl}-4-cyanopiperidine-4-carboxylate] |  | chromatographic logP (Table 2, compounds of formula (IV), LC-UV, acidic range, 0.1% formic acid in water and acetonitrile as eluent, read-out: Log P[a]): 2.26 |
| CCC(C)NC(=O)C1(C#N)CCN(C(=O)Nc2ccccc2)CC1 (stereo not shown) [IV-45] | 2.13 |  |
| CC(C)OC(=O)C1(C#N)CCN(C(=O)Cn2nc(C(F)F)cc2C(F)F)CC1 [IV-10] | 2.84 |  |
| COC(=O)C1(C#N)CCN(C(=O)Nc2cn(C(F)F)nc2C)CC1 [IV-18] | 1.51 |  |
| CS(=O)(=O)Oc1cccc(Cl)c1C1CC(c2csc(C3(C(=O)OC4CCOC4)CCN(C(=O)Cn4nc(C(F)F)cc4C(F)F)CC3)n2)=NO1 (stereo not shown) [Example I-53] | 3.39 |  |
| C=CCOC(=O)C1(C#N)CCN(C(=O)Cn2nc(C(F)F)cc2C(F)F)CC1 [IV-5] | 2.71 |  |
| COC(=O)C1(c2nc(C3=NOC(c4ccccc4)C3)cs2)CCN(C(=O)Cn2nc(C(F)(F)F)cc2C)CC1 (stereo not shown) [Example I-70] | 3.55 |  |
| COC(=O)C1(c2nc(C3=NOC(c4c(F)cccc4F)C3)cs2)CCN(C(=O)Cn2nc(C(F)F)cc2C)CC1 (stereo not shown) [Example I-62] | 3.17 |  |
| C=CCOC(=O)C1(c2nc(C3=NOC(c4c(Cl)cccc4OS(C)(=O)=O)C3)cs2)CCN(C(=O)Cn2nc(C(F)F)cc2C(F)F)CC1 (stereo not shown) [Example I-41] | 3.80 |  |
| CS(=O)(=O)Oc1ccccc1C1CC(c2csc(C3(C(=O)OC4CCOC4)CCN(C(=O)Cn4nc(C(F)F)cc4C(F)F)CC3)n2)=NO1 (stereo not shown) [Example I-57] | 3.21 |  |
| CCOC(=O)C1(c2nc(C3=NOC(c4ccccc4)C3)cs2)CCN(C(=O)Cn2nc(C(F)F)cc2C(F)F)CC1 (stereo not shown) [Example I-25] | 3.76 |  |
| C=CCOC(=O)C1(c2nc(C3=NOC(c4c(F)cccc4F)C3)cs2)CCN(C(=O)Cn2nc(C(F)F)cc2C(F)F)CC1 (stereo not shown) [Example I-43] | 3.83 |  |
| C#CCOc1ccc(F)c(F)c1C1CC(c2csc(C3(C(=O)OC)CCN(C(=O)Nc4cc(C(F)F)nn4C)CC3)n2)=NO1 (stereo not shown) [Example I-16] | 3.00 |  |
| CC(C)=CCNC(=O)C1(C#N)CCN(C(=O)Nc2ccc(F)cc2)CC1 [IV-44] | 2.16 |  |
| COC(=O)C1(C(N)=S)CCN(C(=O)Nc2cn(C)nc2C(F)F)CC1 [II-16] | 1.22 |  |
| C#CCOc1ccccc1C1CC(c2csc(C3(C(=O)OC)CCN(C(=O)Nc4cn(C(F)F)nc4C)CC3)n2)=NO1 (stereo not shown) [Example I-17] | 3.02 |  |
| CC(C)(C)OC(=O)C1(C#N)CCN(C(=O)Nc2ccc(Cl)c(C(F)(F)F)c2)CC1 [IV-28] | 4.06 |  |
| COC(=O)C1(C(N)=S)CCN(C(=O)Nc2cc(C)ccc2C)CC1 [II-15] | 2.02 |  |
| C#CCOc1ccc(F)c(F)c1C1CC(c2csc(C3(C(=O)OC)CCN(C(=O)Cn4nc(C(F)(F)F)cc4C)CC3)n2)=NO1 (stereo not shown) [Example I-73] | 3.71 |  |

| SMILES | Log P[a] | further results |
| --- | --- | --- |
| C#CCOc1ccc(F)c(F)c1C1CC(c2csc(C3(C(=O)OCC=C)CCN(C(=O)Cn4nc(C(F)F)cc4C(F)F)CC3)n2)=NO1 (stereo not shown) [Example I-46] | 3.94 |  |
| COC(=O)C1(c2nc(C3=NOC(c4ccccc4OS(C)(=O)=O)C3)cs2)CCN(C(=O)Nc2cc(C(F)(F)F)nn2C)CC1 (stereo not shown) [Example I-79] | 3.00 |  |
| CC(=O)C1=NOC(c2c(Cl)cccc2OS(C)(=O)=O)C1 (stereo not shown) [2-(3-acetyl-4,5-dihydro-1,2-oxazol-5-yl)-3-chlorophenyl methanesulfonate] |  | chromatographic logP [1]: 2.46 |
| O=C(Cn1nc(C(F)F)cc1C(F)F)N1CCC(C(=O)OC2CCOC2)(c2nc(C3=NOC(c4ccccc4-c4ccccc4)C3)cs2)CC1 (stereo not shown) [Example I-54] |  | Log P[a] [2]: 4.31 |
| CS(=O)(=O)Oc1cccc(Cl)c1C1CC(C(=O)CBr)=NO1 (stereo not shown) [2-[3-(bromoacetyl)-4,5-dihydro-1,2-oxazol-5-yl]-3-chlorophenyl methanesulfonate] |  | chromatographic logP [1]: 2.93 |
| COC(=O)C1(C(N)=S)CCN(C(=O)Cn2nc(C(F)F)cc2C(F)F)CC1 [II-11, methyl 1-{[3,5-bis(difluoromethyl)-1H-pyrazol-1-yl]acetyl}-4-carbamothioylpiperidine-4-carboxylate] |  | chromatographic logP (Table 4, compounds of formula (II), LC-UV, acidic range, 0.1% formic acid in water and acetonitrile as eluent, read-out: Log P[a]): 1.98 |
| C=CCOC(=O)C1(c2nc(C3=NOC(c4ccccc4-c4ccccc4)C3)cs2)CCN(C(=O)Cn2nc(C(F)F)cc2C(F)F)CC1 (stereo not shown) [Example I-42] |  | Log P[a] [2]: 4.72 |
| C#CCOc1ccccc1C1CC(c2csc(C3(C(=O)OCC=C)CCN(C(=O)Cn4nc(C(F)F)cc4C(F)F)CC3)n2)=NO1 (stereo not shown) [Example I-45] | 3.96 |  |
| C#CCOc1ccc(F)c(F)c1C1CC(c2csc(C3(C(=O)OCCSC)CCN(C(=O)Cn4nc(C(F)F)cc4C(F)F)CC3)n2)=NO1 (stereo not shown) [Example I-52] | 3.99 |  |
| COCCOC(=O)C1(c2nc(C3=NOC(c4c(Cl)cccc4OS(C)(=O)=O)C3)cs2)CCN(C(=O)Cn2nc(C(F)F)cc2C(F)F)CC1 (stereo not shown) [Example I-77] | 3.48 |  |
| C#CCOc1ccccc1C1CC(c2csc(C3(C(=O)OC)CCN(C(=O)Nc4cc(C(F)(F)F)nn4C)CC3)n2)=NO1 (stereo not shown) [Example I-80] | 3.35 |  |
| CC(C)(C)OC(=O)C1(C#N)CCN(C(=S)Nc2ccccc2C(F)(F)F)CC1 [IV-25] | 3.50 |  |
| CC(C)=CCNC(=O)C1(C#N)CCN(C(=O)Nc2ccc(Cl)cc2)CC1 [IV-43] | 2.68 |  |
| COC(=O)C1(C(N)=S)CCN(C(=O)Cn2nc(C(F)F)cc2C)CC1 [II-7] | 1.68 |  |
| COC(=O)C1(c2nc(C3=NOC(c4ccccc4-c4ccccc4)C3)cs2)CCN(C(=O)Cn2nc(C(F)(F)F)cc2C)CC1 (stereo not shown) [Example I-68] |  | Log P[a] [2]: 4.49 |
| Cc1cc(C(F)(F)F)nn1CC(=O)N1CCC(C#N)(C(=O)O)CC1 [IV-14] | 1.50 |  |
| CCC(C)NC(=O)C1(C#N)CCN(C(=O)Nc2ccc(Cl)c(C(F)(F)F)c2)CC1 (stereo not shown) [IV-39] | 3.15 |  |
| CC(C)=CCNC(=O)C1(C#N)CCN(C(=O)Nc2ccccc2)CC1 [IV-42] | 2.26 |  |
